The results in this text go back to patent publication US20230142274A1 (SIMCERE PHARMACEUTICAL CO., LTD., priority 2020, published 2023).

One series relates to Daudi cells. Briefly: Inhibition of human Daudi lymphoma cell proliferation (Cell-Titer Glo). Format: cell-based. The settings on record: Homo sapiens, 72 h, 3 days incubation, read-out: Anti-Proliferative Activity Against Daudi cells IC50. In short, it runs like this: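 Daudi cells in RPMI 1640 with 10% FBS were seeded and grown 24 h, then exposed for 3 days (37 °C, 5% CO2) to 10-point 3-fold serial dilutions at 0.25% final DMSO. Viability was read by CellTiter-Glo ATP luminescence, and IC50 was fitted from % inhibition against top/bottom controls.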

The nature of series [1]: Metabolic stability in liver microsomes (human). The conditions noted are these: pH 7.4; Human being liver microsomes 0.5 mg/mL, compound 1 μM, NADPH 1 mM, 37° C. Format: in vitro ADME. On the procedure:
(§1) 1. Source of liver microsomes: human liver microsomes (Corning 452117), CD-1 mouse liver microsomes (XENOTECH M1000)
(§2) 1. Formulation of 100 mM phosphate buffer solution (PBS): 7.098 g of Na2HPO4 was weighed and ultrasonically dissolved in 500 mL of pure water to form Solution A. 3.400 g of KH2PO4 was weighed and ultrasonically dissolved in 250 mL of pure water to form Solution B. Solution A was placed in a stirrer and Solution B was slowly added until the pH value reached 7.4, thus formulating 100 mM PBS buffer solution.
(§3) The reaction system was formulated according to Table 3 below.
(§4) 3. The reaction system was placed in a water bath at 37° C. and pre-incubated for 10 minutes. 40 μL of 10 mM NADPH solution (NADPH was dissolved in 100 mM phosphate buffer solution) was added into the reaction system, and the final concentration of NADPH was 1 mM. 40 μL of Phosphate buffer solution was used instead of the NADPH solution as a negative control. The negative control was used to rule out the influence caused by the chemical stability of the compounds per se.
(§5) 4. The reaction system was added with 4 μL of 100 μM the compound of the present disclosure and Verapamil (the positive control compound) (DMSO as the vehicle), so that the reaction was initiated. The final concentration of the compound was 1 μM.
(§6) 5. At 0.5, 15, 30, 45 and 60 minutes, after being well mixed in a vortex oscillator, 50 μL of the incubated samples were taken out respectively, and the reaction was terminated with ice acetonitrile (4-fold) containing an internal standard. The samples were centrifuged at 3220 g for 45 minutes. After the centrifugation, 90 μL of the supernatants were transferred to a sample plate and mixed well with 90 μL of ultrapure water for LC-MS/MS analysis.
(§7) All data were calculated by Microsoft Excel software. Peak areas were determined from the extracted ion chromatograms. The in-vitro half-life (t1/2) of the parent drug was determined by the linear fitting of the natural logarithm of the elimination percentage of the parent drug versus time.
(§8) The in-vitro half-life (t1/2) was calculated from the slope: […]
Background: Microsomes from liver hold many membrane-bound enzymes, among them those of drug oxidation.

A short description of series [2]: Metabolic stability in liver microsomes (CD-1 mouse). Format: in vitro ADME. The conditions noted are these: pH 7.4; CD-1 mouse liver microsomes 0.5 mg/mL, compound 1 μM, NADPH 1 mM, 37° C. On the procedure: as §1, §2, §3, §4, §5, §6, §7, §8
In the next series the test system is WI-38 cells. The series is described as follows: Inhibition of human WI-38 embryonic lung cell proliferation (Cell-Titer Glo). Format: cell-based. The conditions noted are these: Homo sapiens, 72 h, 3 days incubation, read-out: Anti-Proliferative Activity Against WI-38 cells IC50. On the procedure:
Introduction of the experimental principle: After the RAD51 inhibitor to be tested was co-incubated with human embryonic lung cells for a period of time, the influence of the test compound on cell proliferation was measured by a method for counting cell proliferation based on the quantitative measurement of intracellular ATP content.
Materials and Cells: WI-38 cells were purchased from ATCC; fetal bovine serum, 1640 medium and penicillin-streptomycin were purchased from Gibco Inc. (U.S.), 96-well plates were purchased from Corning Inc. (U.S.), and Cell-Titer Glo reagent was purchased from Promega Corporation (U.S.).
Cell culture: WI-38 cells were cultured in an EMEM culture medium containing 10% fetal bovine serum and 1% penicillin-streptomycin at 37° C. in an atmosphere containing 5% CO2. Cells in logarithmic growth phase could be used for experiments.
Assay of cell proliferation and viability: Cell-Titer Glo reagent was used to measure the inhibitory activities of the compounds on the proliferation of WI-38 cell strain. The concentration of cells was adjusted, and the cells were seeded in a 96-well plate and cultured at 37° C. in an atmosphere containing 5% CO2 for 24 hours. The powder of the compound was dissolved in 100% DMSO to form a 10 mM solution. 10 μl of the solution of the compound was aspirated and transferred into a 96-well compound plate containing 20 μl of DMSO solution in each well for 3-fold dilution and was then formulated to 10 serial dilutions. Thereafter, 2 μl of the solution of the compound was aspirated from the corresponding well and added correspondingly into a 96-well intermediate compound dilution plate containing 78 μl of complete culture medium in each well. The resultant was mixed well, and the plate was centrifuged at 1000 rpm for 1 minute. Finally, 10 μl of the solution of the compound was aspirated from the corresponding well of the 96-well intermediate compound dilution plate, and transferred into the corresponding well of the cell culture plate containing 90 μl of complete culture medium. The final concentration of DMSO was 0.25%. After the addition of the compound, the cells were continued to be incubated for 3 days at 37° C. in an atmosphere containing 5% CO2. Cell-Titer Glo reagent was added to measure cell viability.
% Compound inhibition was calculated and IC50 of the compound was fitted;
% Compound inhibition=1−100%×(Signal−Bottom)/(Top−Bottom)

Series [3] is described as follows: Pharmacokinetic experiment in mouse. Format: in vivo. The settings on record: female CB17-SCID mice, oral dose 25 mg/kg. An excerpt:
CB17-SCID mice were purchased from Beijing Vital River Laboratory Animal Technology Co., Ltd.
DMSO, HP-β-CD (hydroxypropyl-β-cyclodextrin), PEG400 (polyethylene glycol 400), and Vitamin E TPGS (D-α-tocopherol polyethylene glycol 1000 succinate) were purchased from Sigma.
Six female CB17-SCID mice (20 g to 30 g, aged 4 to 6 weeks) were divided randomly into two groups, with 3 mice in each group. In Group 1, the compound in a vehicle of an aqueous solution containing 5% dimethyl sulfoxide and 95% hydroxypropyl-β-cyclodextrin (10%, w/v) was administered by intravenous injection via tail vein. In Group 2, a corresponding dose of the compound in a vehicle of an aqueous solution containing 30% polyethylene glycol 400 and 70% D-α-tocopherol polyethylene glycol 1000 succinate (10%, w/v) was orally administered. The animals were fed normally with food and water before experiment. The mice in each group underwent intravenous blood collection before administration and at 0.083 h (intravenous injection group only), 0.25 h, 0.5 h, 1 h, 2 h, 4 h, 6 h, 8 h, and 24 h after administration. The collected whole blood samples were placed in K2EDTA anticoagulation tubes and centrifuged for 5 min (4000 rpm, 4° C.) to collect the plasma for testing.
10 μL of the mouse plasma sample was taken, and 150 μL of acetonitrile solvent (containing the internal standard compound) was added to precipitate protein. After the resultant was vortexed for 0.5 min and centrifuged (4700 rpm, 4° C.) for 15 min, the supernatant was subjected to 2-fold dilution with water containing 0.05% (v/v) FA and was then subjected to quantitative measurement in LC-MS/MS system (AB Sciex Triple Quad 6500+). A calibration standard curve was prepared in CB17-SCID mouse plasma along with quality control samples to determine the plasma concentration. As for a 10× diluted sample, 2 μL of sample was taken and 18 μL of blank plasma was added. After being vortexed for 0.5 min, the mixture was added with 300 μL of acetonitrile solvent (containing the internal standard compound) so as to precipitate protein. The rest of the processing steps were the same as those for the undiluted samples.

The term pIC50 denotes the IC50 on a negative log10 scale, so that one unit is a factor of ten. By half-life is commonly meant the time in which the quantity being followed falls by half.

pIC50: −log10 of the molar value.

Take `CC(C)OC(=O)NC1CCC(c2ncc(-c3ccc(Nc4cnn(C5COC5)c4)cc3S(=O)(=O)C3CC3)s2)CC1` (stereo not drawn) [Example 86, isopropyl trans-N-[4-[5-[2-cyclopropylsulfonyl]-4-[[1-(oxetan-3-yl)pyrazol-4-yl]amino]phenyl]thiazol-2-yl]cyclohexyl]carbamate]: the values for the negative-log IC50 (pIC50) in the series on Daudi cells and in the series with WI-38 cells were 8.52 and under 4.60, respectively. The half-life at 1 μM in series [1] amounted to 1.78 h; in series [2], 1.4 h.

With `CC(C)OC(=O)NC1CCC(c2ncc(-c3ccc(Nc4cnn(CCF)c4)cc3S(=O)(=O)C3CC3)s2)CC1` (stereo not drawn) [Example 85, isopropyl trans-N-[4-[5-[2-cyclopropylsulfonyl]-4-[[1-(2-fluoroethyl)pyrazol-4-yl]amino]phenyl]thiazol-2-yl]cyclohexyl]carbamate], the pIC50 in the series with Daudi cells was 9.22; in the series on WI-38 cells, 4.77. The half-life at 1 μM in series [1] was 1.37 h; in series [2] it was 0.85 h.

Regarding `CC(C)OC(=O)N[C@H]1CC[C@H](c2ncc(-c3ccc(Nc4cc(CO)[nH]n4)cc3S(=O)(=O)C3CC3)s2)CC1` [Example 72, isopropyl trans-(4-(5-(2-(cyclopropylsulfonyl)-4-((5-(hydroxymethyl)-1H-pyrazol-3-yl)amino)phenyl)thiazol-2-yl)cyclohexyl)carbamate], the pIC50 in the series on Daudi cells is 8.40; in the series on WI-38 cells it was 4.70. In addition, the values for the half-life at 1 μM in series [1] and in series [2] were 7.03 h and 4.52 h, respectively.

As to `CC(C)OC(=O)NC1CCC(c2ncc(-c3ccc(Nc4cnn(C)c4)cc3S(=O)(=O)C3CC3)s2)CC1` (stereo not drawn) [Example 70, isopropyl trans-N-[4-[5-[2-cyclopropylsulfonyl]-4-[(1-methylpyrazol-4-yl)amino]phenyl]thiazol-2-yl]cyclohexyl]carbamate], in series [3], the “Drug Exposure” value turned out to be 137.892 µg·h/mL, the “Max. Drug Conc.” value was 32840 ng/mL and the “Peak Time of Drug Conc.” value stood at 0.75 h. In addition, in series [3] (mouse, plasma, read-out: Drug Elimination Half-life (converted)), the half-life is 5 h. In addition, in the series on Daudi cells, the pIC50 is 8.10. The negative logarithm of the IC50 (pIC50) with WI-38 cells was 4.68.

Turning to `CC(C)OC(=O)NC1CCC(c2ncc(-c3ccc(Nc4cnn(CCO)c4)cc3S(=O)(=O)C3CC3)s2)CC1` (stereo not drawn) [Example 84, isopropyl trans-N-[4-[5-[2-cyclopropylsulfonyl]-4-[[1-(2-(hydroxyethyl)pyrazol-4-yl]amino]phenyl]thiazol-2-yl]cyclohexyl]carbamate], the figures for the negative-log IC50 (pIC50) in the series with Daudi cells and in the series on WI-38 cells were 8.15 and under 4.60, respectively. The values for the half-life at 1 μM in series [1] and in series [2] were 1.12 h and 1.87 h, respectively.

For `CC(C)OC(=O)N[C@H]1CC[C@H](c2ncc(-c3ccc(NC(=O)N4CCc5ccccc5C4)cc3S(=O)(=O)NC(C)(C)C)s2)CC1` [Example 12, isopropyl trans-N-[4-[5-[2-(tert-butylsulfamoyl)-4-(3,4-dihydro-1H-isoquinoline-2-carbonylamino)phenyl]thiazol-2-yl]cyclohexyl]carbamate], the negative-log IC50 (pIC50) in the series with Daudi cells was 7.70; in the series on WI-38 cells it was under 4.60.

As for `CC(C)OC(=O)NC1CCC(c2ncc(-c3ccc(N/C(=N/C#N)NCc4ccccc4)cc3S(=O)(=O)NC(C)(C)C)s2)CC1` (stereo not drawn) [Example 14, isopropyl trans-N-[4-[5-[4-[[(E)-N-benzyl-N′-cyanocarbamoylamino]amino]-2-(tert-butylsulfamoyl)phenyl]thiazol-2-yl]cyclohexyl]carbamate], the pIC50 in the series on Daudi cells was 6.35; in the series with WI-38 cells, under 4.60.

On to `Cc1cc(Nc2ccc(-c3cnc([C@H]4CC[C@H](NC(=O)OC(C)C)CC4)s3)c(S(=O)(=O)C3CCC3)c2)n[nH]1` [Example 88, isopropyl trans-(4-(5-(2-(cyclobutylsulfonyl)-4-((5-methyl-1H-pyrazol-3-yl)amino)phenyl)thiazol-2-yl)cyclohexyl)carbamate], for which the negative-log IC50 (pIC50) in the series with Daudi cells is 8.40; with WI-38 cells it was under 4.60.

As for `CC(C)OC(=O)N[C@H]1CC[C@H](c2ncc(-c3ccc(NC(=O)C4CC4c4ccccc4)cc3S(=O)(=O)NC(C)(C)C)s2)CC1` (stereo partly drawn) [Example 18, isopropyl trans-N-[4-[5-[2-(tert-butylsulfamoyl)-4-[(2-phenylcyclopropanecarbonyl)amino]phenyl]thiazol-2-yl]cyclohexyl]carbamate], the results for the negative-log IC50 (pIC50) with Daudi cells and in the series with WI-38 cells were 7.05 and under 4.60, respectively.

As to `Cc1cc(Nc2ccc(-c3cnc([C@H]4CC[C@H](NC(=O)OC(C)C)CC4)s3)c(S(=O)(=O)C3COC3)c2)n(C)n1` [Example 117, isopropyl trans-(4-(5-(4-((1,3-dimethyl-1H-pyrazol-5-yl)amino)-2-(oxetan-3-ylsulfonyl)phenyl)thiazol-2-yl)cyclohexyl)carbamate], the negative-log IC50 (pIC50) was 8.15 with Daudi cells and 4.70 in the series with WI-38 cells.

For the molecule `CC(C)OC(=O)Nc1ccc(-c2cnc([C@H]3CC[C@H](NC(=O)OC(C)C)CC3)s2)c(S(=O)(=O)C(C)(C)C)c1` [Example 34, isopropyl trans-N-[3-tert-butylsulfonyl-4-[2-[4-(isopropoxycarbonylamino)cyclohexyl]thiazol-5-yl]phenyl]carbamate], the pIC50 in the series on Daudi cells was 6.15; in the series on WI-38 cells it was under 4.60.
